In the supplement of paper PMC10307832:

Assays:
Test in all cases: relative viability (nuclei count vs DMSO), 5 days (fraction); higher = more cells survive
[1] = tested on: NCI-H2085
Method in brief: (§1)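 For relative viability, nuclei counts in treated wells were divided by those in vehicle wells. Lung cancer cell lines had been pin-tool dosed in 1536-well plates the day after seeding and cultured for 5 days, then fixed and stained in one step (final 0.05% Triton X-100, 1% formaldehyde, 1 ug/ml Hoechst) and imaged at 4×. Doses were one drug alone or a fixed anchor-drug dose plus five library-drug doses (not always all listed) in √10 steps, and values are duplicate-plate medians.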

[2] = tested on: NCI-H1975
Method in brief: as §1

[3] = tested on: NCI-H1437
Method in brief: as §1

[4] = tested on: LOU-NH91
Method in brief: as §1

[5] = tested on: NCI-H838
Method in brief: as §1

[6] = tested on: NCI-H2023
Method in brief: as §1

[7] = tested on: CAL-12T
Method in brief: as §1

[8] = tested on: NCI-H1650
Method in brief: as §1

[9] = tested on: NCI-H460
Method in brief: as §1

[10] = tested on: NCI-H1651
Method in brief: as §1

[11] = tested on: COR-L23
Method in brief: as §1

[12] = tested on: NCI-H1355
Method in brief: as §1

[13] = tested on: NCI-H441
Method in brief: as §1

[14] = tested on: SK-LU-1
Method in brief: as §1

[15] = tested on: NCI-H1734
Method in brief: as §1

[16] = tested on: HCC-366
Method in brief: as §1

[17] = tested on: LU99A
Method in brief: as §1

[18] = tested on: NCI-H1793
Method in brief: as §1

[19] = tested on: NCI-H358
Method in brief: as §1

[20] = tested on: NCI-H2342
Method in brief: as §1

[21] = tested on: BEN
Method in brief: as §1

With CC(=O)O[C@@]12CO[C@@H]1C[C@H](O)[C@@]1(C)C(=O)[C@H](O)C3=C(C)[C@@H](OC(=O)[C@H](O)[C@@H](NC(=O)OC(C)(C)C)c4ccccc4)C[C@@](O)([C@@H](OC(=O)c4ccccc4)[C@H]21)C3(C)C [Docetaxel] + CC(=O)c1c(C)c2cnc(Nc3ccc(N4CCNCC4)cn3)nc2n(C2CCCC2)c1=O [Palbociclib] (partner 0.5 µM) the relative viability ([1]; first compound 0.0002 µM) was 0.463, the relative viability ([1]; first compound 0.000632 µM) was 0.551 and the relative viability ([1]; first compound 0.002 µM) was 0.539. For the same molecule, the relative viability ([1]; first compound 0.006325 µM) was 0.48, the relative viability ([1]; first compound 0.02 µM) was 0.42 and the relative viability ([2]; first compound 0.0002 µM) was 0.568. For the same molecule, the relative viability ([2]; first compound 0.000632 µM) was 0.354, the relative viability ([2]; first compound 0.002 µM) was 0.224 and the relative viability ([2]; first compound 0.006325 µM) was 0.215. For the same molecule, the relative viability ([2]; first compound 0.02 µM) was 0.107, the relative viability ([3]; first compound 0.0002 µM) was 0.261 and the relative viability ([3]; first compound 0.000632 µM) was 0.33. The relative viability ([3]; first compound 0.002 µM) was 0.297, the relative viability ([3]; first compound 0.02 µM) was 0.156 and the relative viability ([4]; first compound 0.0002 µM) was 0.553. It also gave a relative viability ([4]; first compound 0.000632 µM) of 0.534, a relative viability ([4]; first compound 0.002 µM) of 0.491 and a relative viability ([4]; first compound 0.006325 µM) of 0.43. It also gave a relative viability ([4]; first compound 0.02 µM) of 0.324, a relative viability ([5]; first compound 0.0002 µM) of 0.223 and a relative viability ([5]; first compound 0.000632 µM) of 0.251. It also gave a relative viability ([5]; first compound 0.002 µM) of 0.209, a relative viability ([5]; first compound 0.006325 µM) of 0.176 and a relative viability ([5]; first compound 0.02 µM) of 0.133. For the same molecule, the relative viability ([6]; first compound 0.0002 µM) was 0.357, the relative viability ([6]; first compound 0.000632 µM) was 0.339 and the relative viability ([6]; first compound 0.002 µM) was 0.101. The relative viability ([6]; first compound 0.006325 µM) was 0.0906, the relative viability ([6]; first compound 0.02 µM) was 0.0705 and the relative viability ([7]; first compound 0.0002 µM) was 0.251. It also gave a relative viability ([7]; first compound 0.000632 µM) of 0.282, a relative viability ([7]; first compound 0.002 µM) of 0.192 and a relative viability ([7]; first compound 0.006325 µM) of 0.198. For the same molecule, the relative viability ([7]; first compound 0.02 µM) was 0.105, the relative viability ([8]; first compound 0.0002 µM) was 0.257 and the relative viability ([8]; first compound 0.000632 µM) was 0.263. The relative viability ([8]; first compound 0.002 µM) was 0.207, the relative viability ([8]; first compound 0.006325 µM) was 0.216 and the relative viability ([8]; first compound 0.02 µM) was 0.138. For the same molecule, the relative viability ([9]; first compound 0.0002 µM) was 0.194, the relative viability ([9]; first compound 0.000632 µM) was 0.0505 and the relative viability ([9]; first compound 0.002 µM) was 0.0387. The relative viability ([9]; first compound 0.006325 µM) was 0.01, the relative viability ([9]; first compound 0.02 µM) was 0.0125 and the relative viability ([10]; first compound 0.0002 µM) was 0.478. The relative viability ([10]; first compound 0.000632 µM) was 0.543, the relative viability ([10]; first compound 0.002 µM) was 0.373 and the relative viability ([10]; first compound 0.006325 µM) was 0.212. The relative viability ([11]; first compound 0.0002 µM) was 0.299, the relative viability ([11]; first compound 0.000632 µM) was 0.262 and the relative viability ([11]; first compound 0.002 µM) was 0.142. It also gave a relative viability ([11]; first compound 0.006325 µM) of 0.141, a relative viability ([11]; first compound 0.02 µM) of 0.108 and a relative viability ([12]; first compound 0.0002 µM) of 0.374. It also gave a relative viability ([12]; first compound 0.000632 µM) of 0.402, a relative viability ([12]; first compound 0.002 µM) of 0.29 and a relative viability ([12]; first compound 0.02 µM) of 0.176. The relative viability ([13]; first compound 0.0002 µM) was 0.215, the relative viability ([13]; first compound 0.000632 µM) was 0.218 and the relative viability ([13]; first compound 0.002 µM) was 0.209. It also gave a relative viability ([13]; first compound 0.006325 µM) of 0.2, a relative viability ([13]; first compound 0.02 µM) of 0.132 and a relative viability ([14]; first compound 0.0002 µM) of 0.358. It also gave a relative viability ([14]; first compound 0.000632 µM) of 0.315, a relative viability ([14]; first compound 0.002 µM) of 0.409 and a relative viability ([14]; first compound 0.006325 µM) of 0.265. It also gave a relative viability ([14]; first compound 0.02 µM) of 0.19, a relative viability ([15]; first compound 0.0002 µM) of 0.321 and a relative viability ([15]; first compound 0.000632 µM) of 0.336. For the same molecule, the relative viability ([15]; first compound 0.002 µM) was 0.281, the relative viability ([15]; first compound 0.006325 µM) was 0.314 and the relative viability ([15]; first compound 0.02 µM) was 0.23. For the same molecule, the relative viability ([16]; first compound 0.0002 µM) was 0.327, the relative viability ([16]; first compound 0.000632 µM) was 0.0952 and the relative viability ([16]; first compound 0.002 µM) was 0.066. For the same molecule, the relative viability ([16]; first compound 0.006325 µM) was 0.0347, the relative viability ([16]; first compound 0.02 µM) was 0.0219 and the relative viability ([17]; first compound 0.0002 µM) was 0.367. It also gave a relative viability ([17]; first compound 0.000632 µM) of 0.36, a relative viability ([17]; first compound 0.002 µM) of 0.265 and a relative viability ([17]; first compound 0.006325 µM) of 0.245. For the same molecule, the relative viability ([17]; first compound 0.02 µM) was 0.159, the relative viability ([18]; first compound 0.0002 µM) was 0.242 and the relative viability ([18]; first compound 0.000632 µM) was 0.358. For the same molecule, the relative viability ([18]; first compound 0.002 µM) was 0.347, the relative viability ([18]; first compound 0.006325 µM) was 0.266 and the relative viability ([18]; first compound 0.02 µM) was 0.208. The relative viability ([19]; first compound 0.0002 µM) was 0.16, the relative viability ([19]; first compound 0.000632 µM) was 0.173 and the relative viability ([19]; first compound 0.002 µM) was 0.142. For the same molecule, the relative viability ([19]; first compound 0.006325 µM) was 0.126, the relative viability ([19]; first compound 0.02 µM) was 0.111 and the relative viability ([20]; first compound 0.0002 µM) was 0.683. It also gave a relative viability ([20]; first compound 0.000632 µM) of 0.558, a relative viability ([20]; first compound 0.002 µM) of 0.486 and a relative viability ([20]; first compound 0.006325 µM) of 0.388. The relative viability ([20]; first compound 0.02 µM) was 0.394, the relative viability ([21]; first compound 0.0002 µM) was 0.457 and the relative viability ([21]; first compound 0.000632 µM) was 0.478. For the same molecule, the relative viability ([21]; first compound 0.002 µM) was 0.39, the relative viability ([21]; first compound 0.006325 µM) was 0.376 and the relative viability ([21]; first compound 0.02 µM) was 0.343.
